# Data taken from patent publication US20100329994A1, “Use of Deuterium Dioxide for Treating Hyperproliferative Skin Diseases” (priority 2006, published 2010).
# Key:
# [1] = system: human TE 354.T epithelial cell lines derived from the human basal-cell carcinoma; assay: Proliferation rate (average cell-doubling rate) of human basal-cell carcinoma cell line in culture; type: cell-based
# From the text: (§1) The influence of D2O and H2O on the proliferation rate of carcinoma cells and normal cells was investigated on cell cultures. For this purpose, human TE 354.T epithelial cell lines derived from the human basal-cell carcinoma (American Type Culture Collection (ATCC), Rockville, USA) were used. Normal human epithelial cell lines from the skin of the same individual (TE 353.sk from ATCC) were used as control. The cells were transferred into 96-well cell culture plates (10^4 cells per well) and allowed to grow to subconfluence. The medium used for this purpose was Dulbecco's modified Eagles medium (DMEM) to which 10% heat-deactivated fetal calf serum (LGC Promochem, Wesel, Germany) was added. The medium was changed, for the first time 2 days after introduction of the cells and then every 48 hours. At the subconfluent stage of the cell culture of the two cell lines, 30% D2O, based on the complete medium, was added to the medium. […] From these values, the average cell-doubling rate n was determined from the gradient of a graphical plot of log {cell count} vs. time in accordance with the equation n=3.32 (log Nt−log N0). Here, Nt is the cell count measured after time t, and N0 is the cell count determined at the time when D2O or H2O was added (zero point measurement). The average cell-doubling rate was determined by averaging the results over in each case 6 wells per time point.
# [2] = system: normal human epithelial cell lines from the skin (TE 353.sk); assay: Proliferation rate (average cell-doubling rate) of normal human skin epithelial cell line in culture; conditions: 30% D2O based on the complete medium, counted from 48 h then every 24 h for a week, 6 wells
# From the text: as §1
smiles,measurement,setting,value
"[2H]O[2H] [D2O, deuterium dioxide]",reduction in <n> for the carcinoma cells compared with normal cells,"[1]; 30% D2O added to medium, versus H2O",disproportionately large reduction
same,"average cell-doubling rate <n> D2O, carcinoma cells","[1]; 30% D2O based on the complete medium, TE 354.T, counted from 48 h then every 24 h for a week, 6 wells",0.23 ± 0.02
same,"average cell-doubling rate <n> D2O, normal cells",[2],0.41 ± 0.04
